Data from US5543496A, “Cyclic bradykinin antagonist peptides” (Scios Nova Inc., priority 1994, dated 1996).
Positions of bridges follow the written chain, without caps; N, C: chain ends. Non-standard residues stand in square brackets, D forms with d. Residues, ends and D or L forms follow the SMILES beside them. Oic = O=C(O)[C@@H]1C[C@@H]2CCCC[C@@H]2N1; dTic = O=C(O)[C@H]1Cc2ccccc2CN1

Columns and labels:
bradykinin receptor = molecular target: T1, bradykinin receptor (Cavia porcellus, UniProt O70526); assay: 3H-Bradykinin binding assay, guinea pig ileum membranes; details: displacement of 3H-bradykinin, terminal ileum homogenate of male Hartley guinea pigs, 90 min ambient temperature
T1 construct: from tissue; host or cells: guinea pig terminal ileum, washed membrane homogenate
T1 sequence (O70526 1-372): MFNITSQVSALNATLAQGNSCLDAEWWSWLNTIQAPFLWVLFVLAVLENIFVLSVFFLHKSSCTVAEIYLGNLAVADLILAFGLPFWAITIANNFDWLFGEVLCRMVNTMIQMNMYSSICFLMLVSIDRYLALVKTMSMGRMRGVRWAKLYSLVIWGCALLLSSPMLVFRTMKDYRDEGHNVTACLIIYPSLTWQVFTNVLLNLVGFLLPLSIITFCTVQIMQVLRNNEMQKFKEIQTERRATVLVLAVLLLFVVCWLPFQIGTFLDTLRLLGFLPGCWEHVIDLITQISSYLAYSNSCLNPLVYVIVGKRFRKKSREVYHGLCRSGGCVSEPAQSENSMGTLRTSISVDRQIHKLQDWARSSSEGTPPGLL
Experimental: Binding of ^3 H-Bradykinin was performed using the method of D. C. Manning, R. Vavrek, J. M. Stewart, and S. H. Snyder, J. Pharmacol. Exp. Ther., (1986), 237, 504. The tissues used in the binding assay were terminal ileum from male Hartley guinea pigs (150-350 g). After dissection, tissues were placed in 20 vol of ice-cold buffer A (25 mM TES containing 0.2 g/L of 1,10-phenanthroline adjusted of pH 6.8 with ammonium hydroxide) and homogenized using a Ploytron Tissumizer at setting 6 for 15 sec. The homogenate was centrifuged at 50,000×g for 10 min, the supernatant discarded, and the pellet resuspended in ice-cold buffer A by homogenization with the Polytron. Each tissue was homogenized and centrifuged three times. The final pellet was resuspended in buffer A containing bovine serum albumin (1 g/L) and Bacitracin (0.14 g/L) to a final volume of 170 mL/g of the original tissue weight. […] Filters were dissolved in Ready-Safe Fluor (Beckman) for at least 90 min before quantitation by liquid scintillation spectrometry. Kd values were determined using saturation binding and analysis by EBDA (G. A. MacPherson, J. Pharmacol. Methods, (1985), 213), followed by LIGAND (P. J. Munson, D. Rodbard, Anal. Biochem., (1980), 220). Ki values were determined using competitive analysis followed by EBDA and LIGAND. […]

[1] = molecular target: T2, bradykinin receptors on intestinal (ileal longitudinal) smooth muscle (Cavia porcellus, UniProt O70526); assay: Bradykinin antagonist activity on guinea pig ileal longitudinal smooth muscle (Schild analysis); assay type: cell-based; details: antagonism of bradykinin-induced contraction, 5 min exposure, read-out: pA2 (converted)
T2 construct: The longitudinal muscle was separated from the underlying circular muscle; from tissue; host or cells: guinea pig ileal longitudinal smooth muscle strips in tissue bath
T2 sequence (O70526 1-372): T1 sequence (O70526 1-372)
Experimental: Guinea pig intestine was removed and placed in a Petri dish containing Tyrodes solution and cut into 3-4 cm segments. The longitudinal muscle was separated from the underlying circular muscle using a cotton applicator (Paton and Zar, J. Physiol., (1968), 194:13. Muscle strips were connected to isometric force-displacement transducers (Grass or Gould) coupled to a physiograph and placed in tissue baths containing Tyrode's solution at 37° C. Each preparation was suspended under a resting tension of 2 g.
After equilibration of the tissues, appropriate volumes of bradykinin solutions were cumulatively added to the 10 mL tissue baths to increase the concentration of bradykinin in the bath step-by-step without washing out after each single dose. Higher concentrations were added only after the preceding contraction had reached a steady value. […] Antagonism of badykinin responses in the presence of antagonist were determined by repeating the cumulative addition procedure for bradykinin after the tissue has been exposed to the antagonist for 5 minutes. Three or four different concentrations of antagonist are studied sequentially in the same preparations. Responses were expressed as a percentage of the maximum contraction elicited by bradykinin in the absence of antagonist. pA2 values were calculated by Schild analysis.

[2] = anesthetized rat, intra-aortic vs intravenous administration; cited from earlier work
[3] = cited from earlier work

Q: With `NC(N)=NCCC[C@@H](N)C(=O)N[C@@H](CCCN=C(N)N)C(=O)N[C@H]1CSSC[C@@H](C(=O)N2Cc3ccccc3C[C@@H]2C(=O)N2[C@H](C(=O)N[C@@H](CCCN=C(N)N)C(=O)O)C[C@@H]3CCCC[C@@H]32)NC(=O)[C@H](Cc2ccccc2)NC(=O)CNC(=O)[C@@H]2CCCN2C1=O` (H-[dR]RCPGFC[dTic][Oic]R-OH; disulfide 3-7) as the compound, how does the Ki (bradykinin receptor) read?
A: 14.8 ± 0.34 nM

Q: Which Ki (bradykinin receptor) does the source give for `N=C(N)NCCC[C@@H](N)C(=O)N[C@@H](CCCNC(=N)N)C(=O)N[C@H]1CSSC[C@@H](C(=O)N[C@@H](CO)C(=O)N2Cc3ccccc3C[C@@H]2C(=O)N2[C@H](C(=O)N[C@@H](CCCNC(=N)N)C(=O)O)C[C@@H]3CCCC[C@@H]32)NC(=O)CNC(=O)[C@@H]2CCCN2C1=O` [drawing 23] (H-[dR]RCPGCS[dTic][Oic]R-OH; disulfide 3-6) here?
A: 1.5 ± 0.1 nM

Q: Which Kb [1] does the source give for `N=C(N)NCCC[C@@H](N)C(=O)N[C@@H](CCCNC(=N)N)C(=O)N[C@H]1CSSC[C@@H](C(=O)N[C@@H](CO)C(=O)N2Cc3ccccc3C[C@@H]2C(=O)N2[C@H](C(=O)N[C@@H](CCCNC(=N)N)C(=O)O)C[C@@H]3CCCC[C@@H]32)NC(=O)CNC(=O)[C@@H]2CCCN2C1=O` [drawing 26] (H-[dR]RCPGCS[dTic][Oic]R-OH; disulfide 3-6) here?
A: 251 nM

Q: For “Bradykinin (RPPGFSPFR; Bradykinin; UniProt P01042 381-389, looked up) [nonapeptide hormone, native agonist]”, which “destruction on a single passage through the pulmonary circulation” value [2] is on record?
A: 98-99%

Q: What about the “half life in the systemic circulation” value [3] of the same compound?
A: less than 30 seconds
